Experimental findings from patent publication US20210070748A1, “INHIBITORS OF BRUTONS TYROSINE KINASE” (Pharmacyclics LLC, priority 2015, published 2021) are described below.

Holding throughout (format): biochemical
For one experiment, the target named is LCK (Homo sapiens, UniProt P06239). The experiment can be described thus: Inhibition of a panel of kinases, in vitro HotSpot kinase assay: LCK. The conditions noted are these: D-compounds panel data; 1 μM ATP; read-out: IC50 LCK.
The target of a further experiment is T1, ITK (Homo sapiens, UniProt Q08881).
T1 sequence (Q08881 1-620): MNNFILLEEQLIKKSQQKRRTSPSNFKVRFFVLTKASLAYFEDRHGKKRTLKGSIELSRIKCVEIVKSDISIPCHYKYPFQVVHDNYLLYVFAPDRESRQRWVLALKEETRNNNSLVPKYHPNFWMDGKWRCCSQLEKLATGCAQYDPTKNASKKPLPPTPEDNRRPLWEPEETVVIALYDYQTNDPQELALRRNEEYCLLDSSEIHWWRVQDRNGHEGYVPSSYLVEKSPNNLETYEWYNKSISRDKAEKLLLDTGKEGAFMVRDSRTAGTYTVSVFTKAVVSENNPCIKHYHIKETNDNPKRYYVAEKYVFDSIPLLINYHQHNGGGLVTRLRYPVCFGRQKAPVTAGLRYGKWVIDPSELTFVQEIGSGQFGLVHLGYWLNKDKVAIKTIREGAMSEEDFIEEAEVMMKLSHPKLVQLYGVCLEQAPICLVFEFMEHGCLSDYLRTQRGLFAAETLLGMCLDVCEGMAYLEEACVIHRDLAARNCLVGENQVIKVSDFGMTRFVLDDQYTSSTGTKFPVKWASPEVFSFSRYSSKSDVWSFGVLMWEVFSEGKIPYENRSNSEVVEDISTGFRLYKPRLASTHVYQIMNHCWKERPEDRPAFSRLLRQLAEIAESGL
The experiment can be described thus: Inhibition of a panel of kinases, in vitro HotSpot kinase assay: ITK. The following applies: D-compounds panel data; 1 μM ATP. The method, then: (§1) The degree of inhibition of a panel of kinases is determined using the in vitro HotSpot kinase assay (purified enzymes, ^33P-ATP, an appropriate substrate and 1 μM ATP).

A further experiment deals with T2, TEC (Homo sapiens, UniProt P42680).
T2 sequence (P42680 1-631): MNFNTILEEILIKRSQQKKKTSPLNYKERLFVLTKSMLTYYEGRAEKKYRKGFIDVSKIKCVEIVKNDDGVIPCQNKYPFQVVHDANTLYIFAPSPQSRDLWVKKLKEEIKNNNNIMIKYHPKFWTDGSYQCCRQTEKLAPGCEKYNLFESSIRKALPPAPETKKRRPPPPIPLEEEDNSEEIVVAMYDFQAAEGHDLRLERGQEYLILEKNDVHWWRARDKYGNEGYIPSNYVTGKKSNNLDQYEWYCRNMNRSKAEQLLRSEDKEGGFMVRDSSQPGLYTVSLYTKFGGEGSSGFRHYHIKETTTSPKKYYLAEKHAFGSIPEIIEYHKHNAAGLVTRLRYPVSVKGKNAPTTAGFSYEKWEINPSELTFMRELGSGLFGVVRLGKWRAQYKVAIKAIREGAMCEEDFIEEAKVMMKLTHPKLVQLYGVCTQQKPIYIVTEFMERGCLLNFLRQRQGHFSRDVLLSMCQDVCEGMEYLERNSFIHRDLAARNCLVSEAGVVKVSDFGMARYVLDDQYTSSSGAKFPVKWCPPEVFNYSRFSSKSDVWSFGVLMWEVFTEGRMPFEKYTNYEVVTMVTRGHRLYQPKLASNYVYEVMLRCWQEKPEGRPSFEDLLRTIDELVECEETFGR
In words: Inhibition of a panel of kinases, in vitro HotSpot kinase assay: TEC. The following applies: D-compounds panel data; 1 μM ATP. The method, then: as §1

As a reminder, the IC50 is the concentration that gives 50% inhibition.

Chain of LCK (P06239 whole entry): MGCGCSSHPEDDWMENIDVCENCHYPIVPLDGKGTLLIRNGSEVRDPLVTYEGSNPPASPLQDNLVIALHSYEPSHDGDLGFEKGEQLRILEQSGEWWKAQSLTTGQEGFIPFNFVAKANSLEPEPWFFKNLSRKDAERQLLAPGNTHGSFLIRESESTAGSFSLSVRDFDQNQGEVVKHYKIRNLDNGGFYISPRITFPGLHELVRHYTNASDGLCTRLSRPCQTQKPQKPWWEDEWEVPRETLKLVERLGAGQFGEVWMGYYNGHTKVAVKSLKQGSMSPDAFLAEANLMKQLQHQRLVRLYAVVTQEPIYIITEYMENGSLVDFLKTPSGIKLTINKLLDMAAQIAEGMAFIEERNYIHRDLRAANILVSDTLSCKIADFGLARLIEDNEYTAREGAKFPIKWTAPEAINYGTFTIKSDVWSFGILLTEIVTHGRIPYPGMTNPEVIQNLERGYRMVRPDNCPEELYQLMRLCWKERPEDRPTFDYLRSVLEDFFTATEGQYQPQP

`C[C@@H]1[C@H](NC(=O)c2ccc(C(C)(C)N(C)C)cc2)CCCN1c1cnc(C(N)=O)c(Nc2cnn(C)c2)n1` [Example D-108, 5-[(2R,3R)-3-{4-[2-(dimethylamino)propan-2-yl]benzamido}-2-methylpiperidin-1-yl]-3-[(1-methyl-1H-pyrazol-4-yl)amino]pyrazine-2-carboxamide]: the IC50 on LCK lay within 100 to 1000 nM; against ITK, 100 to 1000 nM; against TEC, 10 to 100 nM.
For `CN(C)c1ccc2c(=O)n([C@@H]3CCCN(c4cnc(C(N)=O)c(Nc5cnn(C)c5)n4)C3)ccc2c1` [Example D-155, 5-[(3R)-3-[6-(dimethylamino)-1-oxo-1,2-dihydroisoquinolin-2-yl]piperidin-1-yl]-3-[(1-methyl-1H-pyrazol-4-yl)amino]pyrazine-2-carboxamide], the figures for the IC50 on LCK, against ITK and against TEC were 100 to 1000 nM, 100 to 1000 nM and 10 to 100 nM, respectively.
Regarding `NC(=O)c1ncc(N2CCC[C@@H](n3ccc4cc(C5CC5)ccc4c3=O)C2)nc1Nc1ccc2ncccc2c1` [Example D-168, 5-[(3R)-3-(6-cyclopropyl-1-oxo-1,2-dihydroisoquinolin-2-yl)piperidin-1-yl]-3-[(quinolin-6-yl)amino]pyrazine-2-carboxamide], the results for the IC50 at LCK, at ITK and at TEC were more than 10000 nM, more than 10000 nM and 100 to 1000 nM, respectively.
For the compound `C[C@@H]1[C@H](NC(=O)c2ccc(C3CC3)cc2)CCCN1c1cnc(C(N)=O)c(Nc2ccc(OC3CCN(CC(F)(F)F)CC3)cc2)n1` [Example D-98, 5-[(2R,3R)-3-(4-cyclopropylbenzamido)-2-methylpiperidin-1-yl]-3-[(4-{[1-(2,2,2-trifluoroethyl)piperidin-4-yl]oxy}phenyl)amino]pyrazine-2-carboxamide], the IC50 on LCK was more than 10000 nM; against ITK, 1000 to 10000 nM; against TEC, 100 to 1000 nM.
For `C[C@@H]1[C@H](NC(=O)N(C)C)CCCN1c1cnc(C(N)=O)c(Nc2ccc3cccnc3c2)n1` [Example D-121, 5-[(2R,3R)-3-[(dimethylcarbamoyl)amino]-2-methylpiperidin-1-yl]-3-[(quinolin-7-yl)amino]pyrazine-2-carboxamide], in that order: 100 to 1000 nM, 1000 to 10000 nM and 1000 to 10000 nM.
For `Cc1cc(Nc2nc(N3CCC[C@@H](NC(=O)c4ccc(C(C)(C)O)cc4)C3)cnc2C(N)=O)sn1` [Example D-158, 5-[(3R)-3-[4-(2-hydroxypropan-2-yl)benzamido]piperidin-1-yl]-3-[(3-methyl-1,2-thiazol-5-yl)amino]pyrazine-2-carboxamide] the same measures were 100 to 1000 nM, 100 to 1000 nM and 10 to 100 nM.
In the case of `CN1CCC(n2cc(Nc3nc(N4CCC[C@@H](n5ccc6cc(C7CC7)ccc6c5=O)C4)cnc3C(N)=O)cn2)CC1` [Example D-141, 5-[(3R)-3-(6-cyclopropyl-1-oxo-1,2-dihydroisoquinolin-2-yl)piperidin-1-yl]-3-{[1-(1-methylpiperidin-4-yl)-1H-pyrazol-4-yl]amino}pyrazine-2-carboxamide], the IC50 at LCK lay in the range of 100 to 1000 nM; against ITK it was 100 to 1000 nM; against TEC, 10 to 100 nM.
On to `C[C@@H]1[C@H](NC(=O)N(C)C)CCCN1c1cnc(C(N)=O)c(Nc2ccc(OC3CCN(C4CCCC4)CC3)cc2)n1` [Example D-102, 3-({4-[(1-cyclopentylpiperidin-4-yl)oxy]phenyl}amino)-5-[(2R,3R)-3-[(dimethylcarbamoyl)amino]-2-methylpiperidin-1-yl]pyrazine-2-carboxamide], for which the IC50 at LCK, against ITK and on TEC was 10 to 100 nM throughout.
As to `C[C@@H]1[C@H](NC(=O)c2ccc(C3CC3)cc2)CCCN1c1cnc(C(N)=O)c(Nc2ccc(N3CCN(CC(F)(F)F)CC3)cc2)n1` [Example D-97, 5-[(2R,3R)-3-(4-cyclopropylbenzamido)-2-methylpiperidin-1-yl]-3-({4-[4-(2,2,2-trifluoroethyl)piperazin-1-yl]phenyl}amino)pyrazine-2-carboxamide], the IC50 is more than 10000 nM on LCK, 1000 to 10000 nM against ITK and 10 to 100 nM against TEC.
For `C[C@@H]1[C@H](NC(=O)c2ccc(C3CC3)cc2)CCCN1c1cnc(C(N)=O)c(Nc2ccc(N3CCC4(CC3)COC4)cc2)n1` [Example D-99, 5-[(2R,3R)-3-(4-cyclopropylbenzamido)-2-methylpiperidin-1-yl]-3-[(4-{2-oxa-7-azaspiro[3.5]nonan-7-yl}phenyl)amino]pyrazine-2-carboxamide] the same measures were 100 to 1000 nM, 100 to 1000 nM and not above 10 nM.
For `C[C@@H]1[C@H](n2ccc3cc(C4CC4)ccc3c2=O)CCCN1c1cnc(C(N)=O)c(Nc2ccc(N3CCN(C)CC3)cc2)n1` [Example D-6, 5-[(2R,3R)-3-(6-cyclopropyl-1-oxo-1,2-dihydroisoquinolin-2-yl)-2-methylpiperidin-1-yl]-3-{[4-(4-methylpiperazin-1-yl)phenyl]amino}pyrazine-2-carboxamide], the IC50 on LCK is 10 to 100 nM; at ITK it was 100 to 1000 nM; against TEC, 10 to 100 nM.
Regarding `C[C@@H]1[C@H](NC(=O)Nc2cccnc2)CCCN1c1cnc(C(N)=O)c(Nc2ccc(C3(C)CCN(C4CCCC4)CC3)cc2)n1` [Example D-9, 3-{[4-(1-cyclopentyl-4-methylpiperidin-4-yl)phenyl]amino}-5-[(2R,3R)-2-methyl-3-{[(pyridin-3-yl)carbamoyl]amino}piperidin-1-yl]pyrazine-2-carboxamide], the values for the IC50 on LCK, at ITK and against TEC were less than 10 nM, not above 10 nM and 10 to 100 nM, respectively.
For `CC(C)N1CCN(c2ccc(Nc3nc(N4CCC[C@@H](NC(=O)c5ccc(C6CC6)cc5F)[C@H]4C)cnc3C(N)=O)cc2)CC1` [Example D-7, 5-[(2R,3R)-3-(4-cyclopropyl-2-fluorobenzamido)-2-methylpiperidin-1-yl]-3-({4-[4-(propan-2-yl)piperazin-1-yl]phenyl}amino)pyrazine-2-carboxamide] the same measures were 10 to 100 nM, 10 to 100 nM and 10 to 100 nM.
Consider `C[C@@H]1[C@H](NC(=O)c2ccc(C3CC3)cc2)CCCN1c1cnc(C(N)=O)c(Nc2ccc(N3CCC(F)(F)CC3)cc2)n1` [Example D-96, 5-[(2R,3R)-3-(4-cyclopropylbenzamido)-2-methylpiperidin-1-yl]-3-{[4-(4,4-difluoropiperidin-1-yl)phenyl]amino}pyrazine-2-carboxamide], for which the IC50 on LCK is more than 10000 nM; at ITK, more than 10000 nM; against TEC, 10 to 100 nM.
`C[C@H]1CC[C@@H](NC(=O)c2ccc(C3CC3)cc2)CN1c1cnc(C(N)=O)c(Nc2ccc(N3CCN(C)CC3)cc2)n1` [Example D-154, 5-[(2S,5R)-5-(4-cyclopropylbenzamido)-2-methylpiperidin-1-yl]-3-{[4-(4-methylpiperazin-1-yl)phenyl]amino}pyrazine-2-carboxamide]: the IC50 on LCK was 100 to 1000 nM; at ITK it was 1000 to 10000 nM; against TEC, 100 to 1000 nM.
Take `C[C@@H]1[C@H](NC(=O)N(C)C)CCCN1c1cnc(C(N)=O)c(Nc2ccc(N3CCN(C)CC3)cc2)n1` [Example D-111, 5-[(2R,3R)-3-[(dimethylcarbamoyl)amino]-2-methylpiperidin-1-yl]-3-{[4-(4-methylpiperazin-1-yl)phenyl]amino}pyrazine-2-carboxamide]: the IC50 at LCK, at ITK and against TEC was 100 to 1000 nM throughout.
For the compound `C[C@@H]1[C@H](NC(=O)N(C)C)CCCN1c1cnc(C(N)=O)c(Nc2cc(C3CCN(C4CCCC4)CC3)ns2)n1` [Example D-163, 3-{[3-(1-cyclopentylpiperidin-4-yl)-1,2-thiazol-5-yl]amino}-5-[(2R,3R)-3-[(dimethylcarbamoyl)amino]-2-methylpiperidin-1-yl]pyrazine-2-carboxamide], the IC50 on LCK was less than 10 nM; against ITK it was 10 to 100 nM; at TEC, 10 to 100 nM.
